No end group written: not given here.
Columns and labels:
CEM-SS cells = assay: Cytotoxicity in the CPE assay (XTT, 50% reduction in cell viability)
Protocol: (§1) Anti-HIV cytopathic effect inhibition assays were conducted as described (Buckheit et al. (1995) Antimicrob. Agents Chemother., 39:2718-2727). In brief, serially diluted peptides were added to a 96-well round bottom microtiter plate in triplicate. CEM-SS cells at a concentration of 2.5×10^3 cells per well and HIV-1IIIB at the appropriate pre-determined titer were sequentially added to the microtiter plate. The cultures were incubated at 5% CO2/37° C. for six days. Following the incubation, the microtiter plates were stained with XTT tetrazolium dye to evaluate the efficacy and toxicity of the test compound(s).
as §1, with “Cytopathic Effect (CPE) Inhibition Assay: The CPE assay was performed” for “Anti-HIV cytopathic effect inhibition assays were conducted”, “as previously” for “as”, “Briefly,” for “In brief,”, “compound was” for “peptides were”

HIV-1IIIB = assay: microbe, parasite or virus in culture
Protocol: as §1
as §1, with “Cytopathic Effect (CPE) Inhibition Assay: The CPE assay was performed” for “Anti-HIV cytopathic effect inhibition assays were conducted”, “as previously” for “as”, “Briefly,” for “In brief,”, “compound was” for “peptides were”

[1] = read-out: TC50, Table 1, CEM-SS cells, six days, 50% reduction in cell viability
[2] = Table 1, CEM-SS cells, HIV-1IIIB, six days, 50% inhibition of virus replication
[3] = read-out: TC50, Table 3, CEM-SS cells
[4] = read-out: TC50, Table 2, CEM-S cells
[5] = Table 2, sequence shuffling, CEM-S cells

KGRGKQGGKVRAKAKTRSS [Parasin I, reference compound]
CC50 (CEM-SS cells; [1]): > 50 µM | EC50 (HIV-1IIIB; [2]): > 50 µM

GWFDVVKHIAKRF-NH2 [Peptide D70] [listing 1 of 2 here]
EC50 (HIV-1IIIB; [2]): 2.99 µM

VDKPDYRPRPRPPNM [Metalnikowin I, reference compound]
CC50 (CEM-SS cells; [1]): > 54.4 µM | EC50 (HIV-1IIIB; [2]): > 54.4 µM

GAWKNFWSSLRKGFYDGEAGRAIRR [Peptide D94, reference compound]
CC50 (CEM-SS cells; [1]): > 34.1 µM | EC50 (HIV-1IIIB; [2]): > 34.1 µM

ILGPVLGLVSDTLDDVLGIL [Maximin H5, reference compound]
CC50 (CEM-SS cells; [3]): > 49.4 µM | EC50 (HIV-1IIIB; Table 3, CEM-SS cells): > 49.4 µM

NLVSGLIEARKYLEQLHRKLKNRKV [Peptide D88] [listing 1 of 2 here]
EC50 (HIV-1IIIB; [2]): > 33.3 µM

GLRSKIWLWVLLMIWQESNKFKKM [DRS S9, reference compound]
CC50 (CEM-SS cells; [3]): > 32.9 µM | EC50 (HIV-1IIIB; Table 3, CEM-SS cells): 31.6 µM

ILGPVLGLVSRTLRRVLGIL [Maximin H5r3]
CC50 (CEM-SS cells; [3]): 8.7 µM | EC50 (HIV-1IIIB; Table 3, CEM-SS cells): 2.2 µM

SWKSMAKKLKEYMEKLKQRA [Latarcin 3a, reference compound]
EC50 (HIV-1IIIB; >100 μg/ml defined as HIV inactive): ~100 µg/mL

LLKELWTKIKGAGKAVLGKIKGLL [Ponericin L2, reference compound]
CC50 (CEM-SS cells; [1]): 24.7 µM | EC50 (HIV-1IIIB; [2]): 1.4 µM

INLKAIAALAKKLL [Mastoparan M, reference compound]
CC50 (CEM-SS cells; [1]): > 67.6 µM | EC50 (HIV-1IIIB; [2]): > 67.6 µM

HVDKKVADKVLLLKQLRIMRLLTRL [Spinigerin, reference compound]
toxicity to human cells at (CEM-SS cells): ≥ 25 µM | CC50 (CEM-SS cells; human, 6 days): > 33.3 µM

H-GLADFLNKAVGKVVDFVKS-NH2 [Desertcolin 1, reference compound]
CC50 (CEM-SS cells): > 49.9 µM | EC50 (HIV-1IIIB; 1IIIB): > 49.9 µM

H-GLLGLLGSVVSHVVPAIVGHF-NH2 [Maculatin 1.3, reference compound]
CC50 (CEM-SS cells): 8.02 µM

GIIDIAKKLFESW [Peptide B3]
CC50 (CEM-SS cells): > 65.8 µM | EC50 (HIV-1IIIB; 1IIIB): 20.1 µM

FFHHIFRGIVHVGKTIHRLVTG [Piscidin 1, reference compound]
CC50 (CEM-SS cells; [1]): 6.9 µM

GNNRPVYIPQPRPPHPRI [Apidaecin IA, reference compound]
CC50 (CEM-SS cells; [1]): > 47.4 µM | EC50 (HIV-1IIIB; [2]): > 47.4 µM

GIWDTIKSMGKVFAGKILQNL-NH2 [Brevinin-2-related, reference compound]
CC50 (CEM-SS cells): 7.42 µM

GFGKAFHSVSNFAKKHKTA-NH2 [Styelin A, reference compound] [listing 1 of 2 here]
CC50 (CEM-SS cells; [1]): > 48.5 µM

GLRRLLGRLLRRLGRLLLR [GLR-19]
CC50 (CEM-SS cells; [3]): 25.7 µM | EC50 (HIV-1IIIB; Table 3, CEM-SS cells): 4.4 µM

GWFDIIKKIASEL [Peptide B4]
CC50 (CEM-SS cells): 38.9 µM | EC50 (HIV-1IIIB; 1IIIB): 10.7 µM

GFGKAFHSVSNFAKKHKTA-NH2 [Styelin A, reference compound] [listing 2 of 2 here]
EC50 (HIV-1IIIB; [2]): > 48.5 µM

GLFDIIKKIAESW [Peptide B1]
CC50 (CEM-SS cells; [4]): 37 µM | EC50 (HIV-1IIIB; [5]): 11.7 µM

NLVSGLIEARKYLEQLHRKLKNRKV [Peptide D88] [listing 2 of 2 here]
CC50 (CEM-SS cells; [1]): > 33.3 µM

GKPRPYSPRPTSHPRPIRV [Drosocin, reference compound]
CC50 (CEM-SS cells; [1]): > 45.5 µM | EC50 (HIV-1IIIB; [2]): > 45.5 µM

SLSRFLRFLKIVYRRAF-NH2 [Peptide D98]
CC50 (CEM-SS cells; [1]): 8.6 µM | EC50 (HIV-1IIIB; [2]): 0.83 µM

GFLSILKKVLPKVMAHMK-NH2 [Melectin, reference compound]
CC50 (CEM-SS cells; [1]): 7.75 µM

GLRSRIWLWVLLMIWQESNRFKRM [DRS S9r3]
CC50 (CEM-SS cells; [3]): > 32.1 µM | EC50 (HIV-1IIIB; Table 3, CEM-SS cells): 1.25 µM

GWFDVVKHIAKRF-NH2 [Peptide D70] [listing 2 of 2 here]
CC50 (CEM-SS cells; [1]): 10.6 µM

GFLDIIEKIAKSW [Peptide B7]
CC50 (CEM-SS cells; [4]): > 65.8 µM | EC50 (HIV-1IIIB; [5]): 10.5 µM

GWLKKIESIIDAF [Peptide B8]
CC50 (CEM-SS cells; [4]): > 65.8 µM | EC50 (HIV-1IIIB; [5]): 29.5 µM

RQRVEELSKFSKKGAAARRRK [Misgurin, reference compound]
CC50 (CEM-SS cells; [1]): > 40 µM | EC50 (HIV-1IIIB; [2]): > 40 µM

GLWEKIDKFASII [Peptide B2]
CC50 (CEM-SS cells; [4]): > 65.8 µM | EC50 (HIV-1IIIB; [5]): > 65.8 µM

GMASKAGAIAGKIAKVALKAL-NH2 [PGLa, reference compound]
CC50 (CEM-SS cells; [1]): > 50.8 µM | EC50 (HIV-1IIIB; [2]): > 50.8 µM

GLNTLKKVFQGLHEAIKLINNHVQ [Psuedin 1, reference compound] [listing 1 of 2 here]
EC50 (HIV-1IIIB; [2]): 35.7 µM

H-GFKDLLKGAAKALVKTVLF-NH2 [Ascaphin-8, reference compound]
CC50 (CEM-SS cells): 2.9 µM

GLNTLKKVFQGLHEAIKLINNHVQ [Psuedin 1, reference compound] [listing 2 of 2 here]
CC50 (CEM-SS cells; [1]): > 36.8 µM

GIWSDLAEIIKKF [Peptide B6]
CC50 (CEM-SS cells; [4]): > 65.8 µM
